Assay results as given in US5169634A, “Pharmaceutical dosage form for the medication of fish” (priority 1988, dated 1992).

How the values were obtained:
Format in all cases: cell-based
Vibrio salmonicidia = test: Minimal inhibitory concentration, Vibrio salmonicidia
[1] = system: Yersinia ruckeri, serotype 3; test: Minimal inhibitory concentration, Yersinia ruckeri, serotype 3
[2] = system: Yersinia ruckeri, serotype 2; test: Minimal inhibitory concentration, Yersinia ruckeri, serotype 2
[3] = system: Vibrio anguillarum, serotype 1; test: Minimal inhibitory concentration, Vibrio anguillarum, serotype 1

CC1CCc2cc(F)cc3c(=O)c(C(=O)O)cn1c23 (centres unmarked) [Flumequine, flumequine]
Minimal Inhibitory Concentration (Vibrio salmonicidia): 0.035
Minimal Inhibitory Concentration [1]: 0.25
Minimal Inhibitory Concentration [2]: 1.2
Minimal Inhibitory Concentration [3]: 0.035

CCn1cc(C(=O)O)c(=O)c2cc3c(cc21)OCO3 [Oxolinic Acid, oxolinic acid]
Minimal Inhibitory Concentration (Vibrio salmonicidia): 0.07
Minimal Inhibitory Concentration [1]: 0.25
Minimal Inhibitory Concentration [2]: 1.0
Minimal Inhibitory Concentration [3]: 0.035
